Type in all cases: functional, organism-based
In assay [1] the test system is Digitaria sanguinalis. The assay is described as follows: Post-emergence herbicidal activity against Digitaria sanguinalis (hairy crabgrass) assessed as growth inhibition at 25 g a.i/10 a applied 11 days after germination as foliar spray.
The test system of assay [2] is Persicaria nodosa. Kind of assay: Post-emergence herbicidal activity against Persicaria nodosa assessed as growth inhibition at 25 g a.i/10 a applied 11 days after germination as foliar spray.
In assay [3] the test system is Amaranthus retroflexus. The assay is described as follows: Post-emergence herbicidal activity against Amaranthus retroflexus assessed as growth inhibition at 25 g a.i/10 a applied 11 days after germination as foliar spray.
Assay [4] relates to Chenopodium album. The assay is described as follows: Post-emergence herbicidal activity against Chenopodium album assessed as growth inhibition at 25 g a.i/10 a applied 11 days after germination as foliar spray.
In assay [5] the test system is Persicaria nodosa. The assay is described as follows: Pre-emergence herbicidal activity against Persicaria nodosa assessed as growth inhibition at 25 g a.i/10 a.
The subject of assay [6] is Cyperus iria. The assay is described as follows: Pre-emergence herbicidal activity against Cyperus iria assessed as growth inhibition at 25 g a.i/10 a.
Assay [7] has as its system Chenopodium album. Kind of assay: Pre-emergence herbicidal activity against Chenopodium album assessed as growth inhibition at 25 g a.i/10 a.
Assay [8] concerns Echinochloa crus-galli. Kind of assay: Pre-emergence herbicidal activity against Echinochloa crus-galli (barnyard grass) assessed as growth inhibition at 25 g a.i/10 a.
Assay [9] has as its system Digitaria sanguinalis. The assay is described as follows: Pre-emergence herbicidal activity against Digitaria sanguinalis (hairy crabgrass) assessed as growth inhibition at 25 g a.i/10 a.
Assay [10] relates to Echinochloa crus-galli. Kind of assay: Post-emergence herbicidal activity against Echinochloa crus-galli (barnyard grass) assessed as growth inhibition at 25 g a.i/10 a applied 11 days after germination as foliar spray.
The subject of assay [11] is Amaranthus retroflexus. Kind of assay: Pre-emergence herbicidal activity against Amaranthus retroflexus assessed as growth inhibition at 25 g a.i/10 a.
In assay [12] the test system is Cyperus iria. The assay is described as follows: Post-emergence herbicidal activity against Cyperus iria assessed as growth inhibition at 25 g a.i/10 a applied 11 days after germination as foliar spray.

Calls of active or inactive are those of the source. The rule behind the calls is not given here.

Take `CCOCCOc1cccc(Oc2nc(OC)cc(OC)n2)c1C(=O)O`: the “growth inhibition (GI)” value in the assay on Digitaria sanguinalis [1], in the assay with Persicaria nodosa [2], in the assay on Amaranthus retroflexus [3], with Chenopodium album [4], with Persicaria nodosa [5] and in the assay on Cyperus iria [6] was “Active” throughout. In addition, the “growth inhibition (GI)” value in the assay on Chenopodium album [7], with Echinochloa crus-galli [8], in the assay on Digitaria sanguinalis [9], in the assay with Echinochloa crus-galli [10], with Amaranthus retroflexus [11] and in the assay with Cyperus iria [12] was “Active” in each case.
Regarding `COc1cc(OC)nc(Oc2c(F)cccc2C(=O)O)n1`, the “growth inhibition (GI)” value with Digitaria sanguinalis [1] is “inactive”. Further, the “growth inhibition (GI)” value with Persicaria nodosa [2], in the assay with Amaranthus retroflexus [3], in the assay on Chenopodium album [4], in the assay with Persicaria nodosa [5], with Cyperus iria [6] and in the assay on Chenopodium album [7] was “Active” in each case. Besides, the “growth inhibition (GI)” value in the assay with Echinochloa crus-galli [8], in the assay on Digitaria sanguinalis [9], in the assay with Echinochloa crus-galli [10], in the assay on Amaranthus retroflexus [11] and with Cyperus iria [12] was “Active” in each case.
For the compound `COc1cc(OC)nc(Oc2cccc(OC(C)C)c2C(=O)O)n1`, the “growth inhibition (GI)” value in the assay on Digitaria sanguinalis [1], in the assay on Persicaria nodosa [2], in the assay with Amaranthus retroflexus [3], in the assay with Chenopodium album [4], in the assay on Persicaria nodosa [5] and with Cyperus iria [6] was “Active” in each case. Also, the “growth inhibition (GI)” value in the assay on Chenopodium album [7], in the assay on Echinochloa crus-galli [8], with Digitaria sanguinalis [9], with Echinochloa crus-galli [10], in the assay with Amaranthus retroflexus [11] and in the assay on Cyperus iria [12] was “Active” each time.
With `COc1cc(OC)nc(Oc2ccc(-n3cccc3)cc2C(=O)O)n1`, the “growth inhibition (GI)” value with Digitaria sanguinalis [1], in the assay with Persicaria nodosa [2], with Amaranthus retroflexus [3], in the assay with Echinochloa crus-galli [10] and in the assay with Cyperus iria [12] was “Active” in each case. For the same compound, the “growth inhibition (GI)” value with Chenopodium album [4], with Persicaria nodosa [5], in the assay on Cyperus iria [6], with Chenopodium album [7], with Echinochloa crus-galli [8] and in the assay on Digitaria sanguinalis [9] was “inactive” throughout. In addition, the “growth inhibition (GI)” value in the assay with Amaranthus retroflexus [11] is “inactive”.
On to `COc1cc(OC)nc(Oc2ccc(Cl)cc2C(=O)O)n1`, for which the “growth inhibition (GI)” value in the assay on Digitaria sanguinalis [1], in the assay with Persicaria nodosa [2], in the assay with Persicaria nodosa [5], in the assay with Cyperus iria [6], in the assay with Echinochloa crus-galli [8] and with Digitaria sanguinalis [9] was “inactive” in each case. Moreover, in the assay on Echinochloa crus-galli [10], the “growth inhibition (GI)” value was “inactive”. The “growth inhibition (GI)” value in the assay on Amaranthus retroflexus [3], with Chenopodium album [4], in the assay with Chenopodium album [7], in the assay on Amaranthus retroflexus [11] and in the assay on Cyperus iria [12] was “Active” in each case.
Regarding `COc1cc(OC)nc(Oc2ccc(I)cc2C(=O)O)n1`, the “growth inhibition (GI)” value in the assay with Digitaria sanguinalis [1], with Amaranthus retroflexus [3], in the assay on Chenopodium album [4], with Persicaria nodosa [5], with Cyperus iria [6] and in the assay with Chenopodium album [7] was “inactive” in each case. For the same compound, the “growth inhibition (GI)” value in the assay on Echinochloa crus-galli [8], in the assay with Digitaria sanguinalis [9] and in the assay on Amaranthus retroflexus [11] was “inactive” throughout. The “growth inhibition (GI)” value in the assay with Persicaria nodosa [2], in the assay on Echinochloa crus-galli [10] and in the assay with Cyperus iria [12] was “Active” throughout.
Turning to `COc1cc(OC)nc(Oc2ccc(Br)cc2C(=O)O)n1`, the “growth inhibition (GI)” value in the assay with Digitaria sanguinalis [1], in the assay with Persicaria nodosa [2], with Amaranthus retroflexus [3], in the assay on Chenopodium album [4], in the assay with Persicaria nodosa [5] and in the assay on Cyperus iria [6] was “inactive” each time. The “growth inhibition (GI)” value in the assay with Chenopodium album [7], in the assay with Echinochloa crus-galli [8], in the assay on Digitaria sanguinalis [9], in the assay on Echinochloa crus-galli [10], in the assay on Amaranthus retroflexus [11] and in the assay with Cyperus iria [12] was “inactive” each time.
As for `COc1cc(OC)nc(Oc2cccc(C(=O)c3ccccc3)c2C(=O)O)n1`, the “growth inhibition (GI)” value with Digitaria sanguinalis [1], with Persicaria nodosa [5], in the assay on Echinochloa crus-galli [8], in the assay with Digitaria sanguinalis [9] and in the assay on Echinochloa crus-galli [10] was “inactive” in each case. Further, the “growth inhibition (GI)” value with Persicaria nodosa [2], in the assay with Amaranthus retroflexus [3], in the assay with Chenopodium album [4], with Cyperus iria [6], with Chenopodium album [7] and in the assay on Amaranthus retroflexus [11] was “Active” in each case. In the assay with Cyperus iria [12], the “growth inhibition (GI)” value was “Active”.
As to `COc1cc(OC)nc(Cc2cccc(Cl)c2C(=O)O)n1`, the “growth inhibition (GI)” value with Digitaria sanguinalis [1], in the assay on Persicaria nodosa [2], in the assay with Amaranthus retroflexus [3], in the assay on Chenopodium album [4], in the assay on Persicaria nodosa [5] and in the assay with Cyperus iria [6] was “Active” throughout. In addition, the “growth inhibition (GI)” value with Chenopodium album [7], with Echinochloa crus-galli [8], with Digitaria sanguinalis [9], in the assay on Echinochloa crus-galli [10], in the assay with Amaranthus retroflexus [11] and in the assay on Cyperus iria [12] was “Active” throughout.
Take `COc1cc(OC)nc(Oc2c(Cl)cccc2C(=O)O)n1`: the “growth inhibition (GI)” value in the assay on Digitaria sanguinalis [1], with Chenopodium album [4] and in the assay on Echinochloa crus-galli [10] was “inactive” each time. Also, the “growth inhibition (GI)” value with Persicaria nodosa [2], in the assay with Amaranthus retroflexus [3] and in the assay with Cyperus iria [12] was “Active” in each case.
Turning to `COc1cc(OC)nc(Oc2cccc(C(C)=O)c2C(=O)O)n1`, the “growth inhibition (GI)” value in the assay on Digitaria sanguinalis [1], in the assay with Persicaria nodosa [2], in the assay with Amaranthus retroflexus [3], with Chenopodium album [4], in the assay on Persicaria nodosa [5] and in the assay on Cyperus iria [6] was “Active” throughout. Also, the “growth inhibition (GI)” value with Chenopodium album [7], with Echinochloa crus-galli [8], in the assay on Digitaria sanguinalis [9], in the assay with Echinochloa crus-galli [10], with Amaranthus retroflexus [11] and in the assay with Cyperus iria [12] was “Active” throughout.
As to `CCCc1cccc(Oc2nc(OC)cc(OC)n2)c1C(=O)O`, the “growth inhibition (GI)” value with Digitaria sanguinalis [1], in the assay with Persicaria nodosa [2], with Amaranthus retroflexus [3], with Chenopodium album [4], with Persicaria nodosa [5] and in the assay on Cyperus iria [6] was “Active” throughout. For the same compound, the “growth inhibition (GI)” value in the assay on Chenopodium album [7], in the assay on Echinochloa crus-galli [8], in the assay on Digitaria sanguinalis [9], in the assay with Echinochloa crus-galli [10], with Amaranthus retroflexus [11] and with Cyperus iria [12] was “Active” in each case.
Consider `CNc1ccc(Oc2nc(OC)cc(OC)n2)c(C(=O)O)c1`, for which the “growth inhibition (GI)” value in the assay on Digitaria sanguinalis [1], in the assay with Persicaria nodosa [2], in the assay on Amaranthus retroflexus [3], with Chenopodium album [4], with Persicaria nodosa [5] and with Cyperus iria [6] was “Active” each time. Besides, the “growth inhibition (GI)” value in the assay on Chenopodium album [7], with Echinochloa crus-galli [10], in the assay on Amaranthus retroflexus [11] and in the assay on Cyperus iria [12] was “Active” in each case. In addition, the “growth inhibition (GI)” value in the assay on Echinochloa crus-galli [8] and with Digitaria sanguinalis [9] was “inactive” each time.
For `COc1cc(OC)nc(Nc2cccc(Cl)c2C(=O)O)n1`, the “growth inhibition (GI)” value in the assay on Digitaria sanguinalis [1], with Persicaria nodosa [2], in the assay on Chenopodium album [4], with Persicaria nodosa [5], in the assay on Cyperus iria [6] and in the assay on Chenopodium album [7] was “inactive” in each case. Moreover, the “growth inhibition (GI)” value with Echinochloa crus-galli [8], in the assay with Digitaria sanguinalis [9], with Echinochloa crus-galli [10], in the assay on Amaranthus retroflexus [11] and in the assay on Cyperus iria [12] was “inactive” in each case. Moreover, the “growth inhibition (GI)” value in the assay on Amaranthus retroflexus [3] was “Active”.

For the origin of these results see ChEMBL document CHEMBL3046894, “Synthesis and Herbicidal Activity of Pyrimidinyl Salicylic and Thiosalicylic Acids” (J Pestic Sci, 1996).
